Experimental data published in PMC7346179, “Fe Porphyrin-Based SOD Mimic and Redox-Active Compound, (OH)FeTnHex-2-PyP^4+, in a Rodent Ischemic Stroke (MCAO) Model: Efficacy and Pharmacokinetics as Compared to Its Mn Analogue, (H2O)MnTnHex-2-PyP^5+” (Antioxidants, 2020).
Where “and” joins values, the source holds several entries; their conditions need not be identical. Identical values can stand only once.

Experiments:
[1] = 3-day PK study in healthy mice; assay type: in vivo; conditions: for liver level: 6 h after last injection
Description: Samples were prepared as described in [10] with modifications to accommodate the small tissue sizes and enhance the detection sensitivity. Quantitative liquid chromatography electrospray-ionization tandem mass spectrometry (LCMS/MS) analysis was performed on a Shimadzu 20A series HPLC (LC)—Applied Biosystems/MDS Sciex API 3200 QTrap or API 4000 QTrap tandem-mass spectrometer (MS/MS) as described earlier. The use of heptafluorobutyric acid (HFBA) mobile phase modifier as an ion-pairing agent increases the overall lipophilicity and volatility, which increases the retention and ionization efficiency of the analytes, affording an abundance of HFBA-associated ions. […] Since oxygen atoms are buried within the porphyrin cavity and thus not easily solvated, these compounds maintain similar redox properties and lipophilicity as their parent hexyl analogs, which makes them co-elute from the HPLC column and thus can be used as internal standards. (OH)FeTnBuOE-2-PyP^4+ was prepared as described for other Fe(III) N-alkylpyridylporphyrins and analogous (H2O)MnTnBuOE-2-PyP^5+ [13, 16]. The solvents employed were: A = 95:5 H2O:MeCN (0.1% HFBA); B = MeCN (0.1% HFBA). […] With the chosen solvent system, all four atropoisomers collapsed into a single peak, enhancing the sensitivity of the method to as low as 0.5 nM (nanomoles per L of tissue homogenate). Analyses were performed using a Phenomenex Luna C18 guard cartridge (ID × L, 2 × 4 mm) only. […] Their structures are also shown. Calibration samples in the 1–300 nM or 0.1–30 μM range (depending on the expected levels of MP) were prepared by adding known amounts of serially diluted pure standards into the plasma or homogenates of related tissues. The response was calculated as the ratio between the standard peak area and the internal standard peak area.
The study was designed to follow the dosing regime in a 3-day mouse MCAO efficacy study. […] Three mice were used per compound in each study. Mice were sacrificed 6 h after the last injection at day 3 and blood and tissues (liver and brain) collected. Blood was centrifuged at 2500 rpm for 10 min and plasma was harvested. Plasma and tissues were analyzed on porphyrin content by LCMS/MS.

[2] = 7-day PK study in healthy rats; assay type: in vivo
Description: Samples were prepared as described in [10] with modifications to accommodate the small tissue sizes and enhance the detection sensitivity. Quantitative liquid chromatography electrospray-ionization tandem mass spectrometry (LCMS/MS) analysis was performed on a Shimadzu 20A series HPLC (LC)-Applied Biosystems/MDS Sciex API 3200 QTrap or API 4000 QTrap tandem-mass spectrometer (MS/MS) as described earlier. The use of heptafluorobutyric acid (HFBA) mobile phase modifier as an ion-pairing agent increases the overall lipophilicity and volatility, which increases the retention and ionization efficiency of the analytes, affording an abundance of HFBA-associated ions. […] (OH)FeTnBuOE-2-PyP^4+ was prepared as described for other Fe(III) N-alkylpyridylporphyrins and analogous (H2O)MnTnBuOE-2-PyP^5+ [13, 16]. The solvents employed were: A = 95:5 H2O:MeCN (0.1% HFBA); B = MeCN (0.1% HFBA). […] With the chosen solvent system, all four atropoisomers collapsed into a single peak, enhancing the sensitivity of the method to as low as 0.5 nM (nanomoles per L of tissue homogenate). Analyses were performed using a Phenomenex Luna C18 guard cartridge (ID × L, 2 × 4 mm) only. […] Their structures are also shown. […] The response was calculated as the ratio between the standard peak area and the internal standard peak area. We conducted a 7-day rat PK study under conditions identical to those that afforded the therapeutic efficacy of MnTnHex-2-PyP^5+ in an earlier study. […] Afterwards, blood/plasma samples were collected before injection and at 2 h after 24 h-injections (every second injection). Liver and brains were taken for analysis 12 h after the last injection. Three rats were used per compound. After the single (first) SC injection, we obtained a prototypical PK profile observed in the case of all Mn(III) ortho […] In contrast, although similarly absorbed after SC injection, the […] Our understanding is that the “elimination” process is actually a fast distribution/retention into/by the liver, kidney, and spleen, a multi-compartmental process responsible for early decay of the plasma concentration, observed for all Mn porphyrin analogs investigated.

[3] = SC and IV 0.5 mg/kg twice daily 3 days
[4] = healthy rats, SC 0.225 mg/kg BID 7 days, 12 h after last injection
[5] = healthy rats, SC 0.225 mg/kg BID 7 days, WinNonlin simulation

monohydroxo Fe(III) meso-tetrakis(N-n-hexylpyridinium-2yl)porphyrin [FeHex]
liver level ([1]; IV 0.5 mg/kg twice daily 3 days): 290 nM | liver level ([1]; SC 0.5 mg/kg twice daily 3 days): 126 nM | liver levels relative to MnHex [1, 3]: much lower levels | plasma levels relative to MnHex [1, 3]: Higher levels | plasma exposure (AUC) relative to MnHex ([2]; 7-day twice-daily treatment of rats): more than 2 fold | brain concentration at end of 7-day treatment [2, 4]: 24 nM | end-of-treatment 7-day liver tissue level [2, 4]: 0.04 µM | average plasma concentration (Caver) [2, 5]: 160 nM | plasma AUC [2, 5]: 26.9 µM·h | Cmax ([2]; healthy rats, SC 0.225 mg/kg BID 7 days, WinNonlin simulation, read-out: Cmax at steady state, plasma): 210 nM | elimination from plasma after single (first) SC injection ([2]; healthy rats, SC 0.225 mg/kg, first 12 h): much slower elimination from the plasma | plasma half-life ([2]; healthy rats, SC 0.225 mg/kg, estimated from simulation, 0.225 mg/kg): 23 h and ~ 23 h
